Tests used:
[1] = test system: ingesting phagocytes (IPs) and non-IPs; assay: FC-induced apoptosis (annexin V) in IPs and non-IPs during 20 hour post-ingestion FC-loading; format: cell-based, mouse; conditions: 10 μM inhibitor; for apoptosis in IPs: 20 hours in FC-loading medium, FIG. 10A
Protocol: FIG. 10A is a bar graph depicting the results of experiments in which the protocol described in FIG. 9C was used and the percent apoptosis was determined in non-IPs (cross-hatched bars) and IPs (black bars) that were incubated for 20 hours in FC-loading medium either in the absence or presence of 10 μM of the IKK inhibitor PS1145, 10 μM of the PI-3 kinase/Akt inhibitor […], or both compounds.
(§1) FC-AMs were removed from the culture dish and cultured for 30 minutes with a monolayer of fresh macrophages (“phagocytes”) at an approximate ratio of 1:5 (FC-AMs:phagocytes). In certain experiments, the FC-AMs were labeled with Alexa Fluor 488 annexin V or Calcium Green™-AM for 20 minutes prior to addition to the phagocytes in order to mark those phagocytes that had ingested the FC-AMs (“ingesting phagocytes,” or “IPs”). The non-ingested apoptotic cells were then removed by thorough rinsing as described in Li et al. (2006, J. Biol. Chem. 281:6707-6717), and the phagocytes were incubated in fresh medium for the indicated times. In some experiments, the phagocytes were incubated during the post-ingestion incubation in medium containing acetyl-LDL and 58035 to maintain FC levels in the (ingesting phagocytes) IPs, inhibitors of Akt or NFκB, or various combinations of these reagents. To assay apoptosis in the phagocytes, the cells were stained with Alexa Fluor 594 annexin V and viewed by fluorescence microscopy. For quantification, 4-6 representative fields of cells at 40× magnification were counted to determine the number of apoptotic phagocytes and total phagocytes for each condition.
Because NFκB is known to signal survival responses in cells, the functional significance of NFκB signaling in the survival response of IPs against FC-induced apoptosis was investigated. […] The NFkB and Akt survival pathways might represent independent, complementary survival pathways or they may signal through a common final mediator. […]

[2] = test system: cholesterol trafficking to ACAT in the ER; assay: Whole-cell cholesterol esterification assay in phagocytes after ingestion of FC-AMs; format: cell-based, mouse; conditions: 1 μM during the post-ingestion period; FIG. 7
Protocol: FIG. 7 is a bar graph depicting the results of experiments in which macrophages were incubated for 18 hours in medium alone (i.e., no exposure to FC-AMs) or in the same medium for the indicated time points after ingestion of FC-AMs. All of the incubations contained [^14C]oleate, and some of the phagocytes were incubated with 1 μM U18666A during the post-ingestion period to block cholesterol trafficking to the endoplasmic reticulum (ER). To make sure that the phagocytes would not be exposed to residual ACAT inhibitor in the FC-AMs, the FC-AMs for this experiment were generated by incubating macrophages from Acat1−/− mice with AcLDL without ACAT inhibitor. After the indicated time points, the macrophages were assayed for cholesteryl [^14C]oleate formation as an indicator of cholesterol trafficking to ACAT in the ER.
After a 30 minute incubation of phagocytes with FC-AMs that were made using acetyl-LDL and macrophages from Acat1^−/− mice (i.e., no ACAT inhibitor), non-ingested apoptotic cells were removed, and the phagocytes were incubated in fresh medium containing [^14C]oleate for specific times. […] Cholesterol esterification activity was then determined in lipid extracts of the cells by measuring the cellular content of cholesteryl [^14C]oleate by thin-layer chromatography (Tabas et al., 1987, J. Clin. Invest. 79:418-426). […]

[3] = test system: ingesting phagocytes (IPs) and non-IPs; assay: UV-induced apoptosis (annexin V) in IPs and non-IPs; format: cell-based, mouse; conditions: 10 μM inhibitor, 8 hour incubation after UV irradiation, FIG. 12
[4] = test system: ingesting phagocytes (IPs); assay: Apoptosis in phagocytes that had ingested FC-AMs, incubated with SRA ligand; format: cell-based, mouse
Protocol: as §1
FC-induced apoptosis in macrophages requires UPR activation in combination with engagement of the type A scavenger receptor (SRA), both of which occur with acetyl-LDL-induced FC loading. […]

[5] = test system: UV-induced apoptotic J774 macrophages; assay: Phagocytosis of UV-induced apoptotic J774 macrophages by J744 murine macrophages (Example 4); format: cell-based; conditions: 10 μM, one hour pre-treatment, 45 minutes; vs untreated; FIG. 5
Protocol: In a similar experiment, J744 murine macrophages (phagocytes) were pretreated in the presence of absence of the ROCK inhibitor fasudil (10 μM) for one hour. The phagocytes were then incubated for 45 minutes, with or without fasudil, with fluorescently labeled UV-induced apoptotic J774 macrophages (“UV-Ams”). The percentage of phagocytes that had engulfed at least one UV-AM was quantified using fluorescent microscopy. […] Such compounds are useful for treating cardiovascular disease.

apoptotic J774 cells = assay: Phagocytic uptake of apoptotic J774 cells by peritoneal macrophages, ROCK inhibitor (Example 4); format: cell-based; conditions: 10 μM, one hour pre-treatment, 45 minutes with apoptotic cells; vs untreated; FIG. 4
Protocol: As discussed in Example 6, statins can inhibit RhoA activation. RhoA activation inhibits phagocytic clearance of apoptotic cells and so inhibitors of RhoA or the downstream RhoA effector, Rho kinase (ROCK) can enhance or at least contribute to limit or decrease Rho-mediated inhibition of phagocytic clearance. […] In these experiments, peritoneal macrophages (phagocytes) were treated for one hour in the presence or absence of 10 μM Y-27632. Calcein-AM-labeled (green) apoptotic J774 cells (UV-irradiated) were then added to the phagocytes at a ratio of 1:1, in the absence or presence of Y-27632. After 45 minutes, non-internalized cells were removed by rinsing, and the percentage of phagocytes that had internalized labeled apoptotic macrophages was quantified by fluorescence microscopy. Results are depicted in FIG. 4 as the as the mean ±SEM; n=3 fields of cells, each containing approximately 150 cells.

[6] = test system: FC-induced apoptotic macrophages; conditions: phagocytes pre-treated with 100 μM for 15 minutes; compared to untreated phagocytes; FIG. 2
Protocol: Briefly, mouse peritoneal macrophages were labeled with the fluorophore calcein-AM (green) and then FC-loaded to induced apoptosis. Some of the macrophages were not FC-loaded, thus serving as a non-apoptotic control. The macrophages were added to a monolayer of octadecylrhodamine-labeled (red) macrophage phagocytes for 30 minutes at 37° C. The monolayers were then thoroughly rinsed with phosphate buffered saline (PBS). […] The percentage of rhodamine-labeled phagocytes with green inclusion was determined and quantified. Inclusion of green indicated the uptake of apoptotic cells into the phagocytes.

[7] = test system: UV-irradiated apoptotic J774 cells; assay: Efferocytosis of UV-irradiated apoptotic J774 cells by cytokine pre-treated primary efferocytes; format: cell-based; conditions: pre-treated about 24 hours, challenged 30 minutes; FIG. 17
Protocol: FIG. 17. Primary efferocytes were pre-treated with the indicated cytokine for about 24 hours and then challenged for 30 minutes with UV-irradiated apoptotic J774 cells and the percent efferocytosis was determined.
Thus, drugs that mimic this effect can promote the uptake of apoptotic macrophages in advanced atherosclerotic lesions (see in allergic, cellular and humoral responses to parasitic and extracellular pathogens (see Nat Rev Immunol. 2003 January;3(1):23-35).

Molecule: O=c1cc(N2CCOCC2)oc2c(-c3ccccc3)cccc12 [LY294002]
- apoptosis in IPs [1]: 32.0±5.7%

Molecule: CCN(CC)CCO[C@H]1CC[C@@]2(C)C(=CC[C@@H]3[C@@H]2CC[C@]2(C)C(=O)CC[C@@H]32)C1 [U18666A]
- FC-AM-induced increase in cholesterol esterification (cholesteryl [14C]oleate formation) [2]: completely blocked

Molecule: O=C(Nc1cc(Cl)cc2c1[nH]c1cnccc12)c1cccnc1 [PS1145]
- FC-induced apoptosis in IPs (in words) ([1]; 20 hours FC-loading, vs no inhibitor): very similar effect
- apoptosis in IPs [1]: 32.0±3.4%
- UV-induced apoptosis in non-IPs / compared to non-IPs [3]: no effect
- UV-induced apoptosis in IPs ([3]; vs no-inhibitor control): only a small increase

Molecule: fucoidan
- induction of apoptosis in the IPs [4]: did not induce apoptosis

Molecule: O=S(=O)(c1cccc2cnccc12)N1CCCNCC1 [fasudil]
- percentage phagocytosis (phagocytes that had engulfed at least one UV-AM) [5]: increased

Molecule: C[C@@H](N)[C@H]1CC[C@H](C(=O)Nc2ccncc2)CC1 [Y-27632, trans-4-[(1R)-1-aminoethyl]-N-pyridin-4-ylcyclohexanecarboxamide]
- percentage of phagocytes ingesting apoptotic macrophages (apoptotic J774 cells): increase

Molecule: CCN(CC)CC.Nc1ncnc2c1ncn2C1OC2COP(O)(=S)OC2C1O (single isomer, unassigned) [PKA inhibitor, adenosine 3′,5′-cyclic monophosphorothioate, Rp-isomer, triethylammonium salt]
- percentage of rhodamine-labeled phagocytes with green inclusion (uptake of FC-induced apoptotic macrophages) [6]: internalized more FC-induced apoptotic macrophages than untreated phagocytes

B1: interleukin-4: cytokine that promotes alternative activation of macrophages (protein, UniProt P05112 25-153, looked up)
Interleukin-4: HKCDITLQEIIKTLNSLTEQKTLCTELTVTDIFAASKNTTEKETFCRAATVLRQFYSHHEKDTRCLGATAQQFHRHKQLIRFLKRLDRNLWGLAGLNSCPVKEANQSTLENFLERLKTIMREKYSKCSS
- percent efferocytosis (ability of phagocytes to engulf apoptotic macrophages) [7]: promotes the ability of these phagocytes to engulf apoptotic macrophages
